Data from patent US11771709B2, “ALK protein degradation agent and anti-tumor application thereof” (ShanghaiTech University, priority 2017, dated 2023).

What was measured:
Assay type in all cases: cell-based
[1] = target: T1, ALK protein in SR (NPM-ALK) cells (Homo sapiens, UniProt Q9UM73); test: Western blot of ALK protein level (degradation, DC50), ALK phosphorylation and downstream signaling in SR cells; details: for DC50 (nM) in SR / DC50: ALK protein degradation in SR cells
T1 construct: NPM (nucleophosmin, NPM1, P06748) fusion partner; host or cells: SR (ALCL) cells; the other entry of the earlier key: NPM1 (P06748, Nucleophosmin)
Experimental: Cancer cells were seeded in 1 ml RPMI1640 medium in 24-well plate at the density of 3×10^5 or 1.5×10^5 cells/ml. […] Then cells were washed twice with PBS and lyzed in RIPA lysis buffer with Halt Proteinase and Phosphotase inhibitor. Equal amount of proteins were loaded to run SDS-PAGE gels after denature. The gels were blotted to PVDF membrane. After incubating with first and secondary antibodies, the images were developed using SuperSignal West Pico Chemiluminescent Substrate.
DC50 (concentration required to degrade protein by half) were calculated based on the intensity from western blot, and data were analyzed via Prism GraphPad with non-linear regression.

[2] = target: T2, ALK protein in H3122 (EML4-ALK) cells (Homo sapiens, UniProt Q9UM73); test: Western blot of ALK protein level (degradation, DC50), ALK phosphorylation and downstream signaling in H3122 cells; details: ALK protein degradation in H3122 cells
T2 construct: EML4 (Echinoderm microtubule-associated protein-like 4, Q9HC35) fusion partner, variant 1; host or cells: NCI-H3122 lung adenocarcinoma cells; the other entry of the earlier key: EML4 (Q9HC35, Echinoderm microtubule-associated protein-like 4)

SR (NPM-ALK) cells = test: Growth inhibition IC50 in ALCL SR cells (CCK8/WST, 72 hours); details: SR cells, WST
Experimental: SR (NPM-ALK) and NCI-H2228 (EML4-ALK, V3) cells were purchased from ATCC. […] All Cells were cultured in RPMI1640 medium with 10% FBS and Penicillin-Streptomycin in 37° C. incubator with 5% CO2.
Cells were seeded at specific density in 96 well plates one day before treatment. […] Viable cells were measured via CCK8 reagent and IC50s were calculated via Prism Graphad. Experiments were repeated at least three times.

[3] = 72 h, Brigatinib-based PROTAD molecules (Table 3)
[4] = Alectinib based ALK PROTAD compounds (Table 4)

T2 sequence (Q9UM73 with tags, fused parts or gaps): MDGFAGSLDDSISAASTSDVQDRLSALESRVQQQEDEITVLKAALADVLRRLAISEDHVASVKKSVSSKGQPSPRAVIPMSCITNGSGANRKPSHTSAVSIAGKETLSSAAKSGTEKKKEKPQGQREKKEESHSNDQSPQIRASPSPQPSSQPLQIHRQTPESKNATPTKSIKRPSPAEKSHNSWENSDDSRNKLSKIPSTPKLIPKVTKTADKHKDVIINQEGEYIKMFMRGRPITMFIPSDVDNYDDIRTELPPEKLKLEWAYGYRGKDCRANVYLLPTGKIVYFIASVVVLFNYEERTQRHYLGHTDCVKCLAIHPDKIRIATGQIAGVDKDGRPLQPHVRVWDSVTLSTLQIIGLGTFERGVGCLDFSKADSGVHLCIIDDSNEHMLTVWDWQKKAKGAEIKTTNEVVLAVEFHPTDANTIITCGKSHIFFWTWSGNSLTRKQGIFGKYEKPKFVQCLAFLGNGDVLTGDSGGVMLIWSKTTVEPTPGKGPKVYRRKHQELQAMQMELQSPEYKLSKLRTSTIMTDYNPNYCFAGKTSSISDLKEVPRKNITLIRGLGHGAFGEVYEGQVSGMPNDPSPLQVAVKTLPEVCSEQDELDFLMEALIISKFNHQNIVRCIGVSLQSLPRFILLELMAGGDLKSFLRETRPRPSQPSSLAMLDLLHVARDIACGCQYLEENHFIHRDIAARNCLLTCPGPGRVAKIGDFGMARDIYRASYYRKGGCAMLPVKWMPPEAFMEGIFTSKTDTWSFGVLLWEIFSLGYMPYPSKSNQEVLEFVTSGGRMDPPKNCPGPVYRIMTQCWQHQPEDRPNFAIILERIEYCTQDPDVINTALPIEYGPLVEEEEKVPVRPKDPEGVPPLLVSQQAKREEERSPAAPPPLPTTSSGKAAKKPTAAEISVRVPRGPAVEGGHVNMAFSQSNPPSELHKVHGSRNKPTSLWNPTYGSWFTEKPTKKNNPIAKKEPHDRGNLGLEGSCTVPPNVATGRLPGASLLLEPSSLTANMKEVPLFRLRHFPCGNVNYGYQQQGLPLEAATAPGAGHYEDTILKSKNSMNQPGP
T1 sequence (Q9UM73 with tags, fused parts or gaps): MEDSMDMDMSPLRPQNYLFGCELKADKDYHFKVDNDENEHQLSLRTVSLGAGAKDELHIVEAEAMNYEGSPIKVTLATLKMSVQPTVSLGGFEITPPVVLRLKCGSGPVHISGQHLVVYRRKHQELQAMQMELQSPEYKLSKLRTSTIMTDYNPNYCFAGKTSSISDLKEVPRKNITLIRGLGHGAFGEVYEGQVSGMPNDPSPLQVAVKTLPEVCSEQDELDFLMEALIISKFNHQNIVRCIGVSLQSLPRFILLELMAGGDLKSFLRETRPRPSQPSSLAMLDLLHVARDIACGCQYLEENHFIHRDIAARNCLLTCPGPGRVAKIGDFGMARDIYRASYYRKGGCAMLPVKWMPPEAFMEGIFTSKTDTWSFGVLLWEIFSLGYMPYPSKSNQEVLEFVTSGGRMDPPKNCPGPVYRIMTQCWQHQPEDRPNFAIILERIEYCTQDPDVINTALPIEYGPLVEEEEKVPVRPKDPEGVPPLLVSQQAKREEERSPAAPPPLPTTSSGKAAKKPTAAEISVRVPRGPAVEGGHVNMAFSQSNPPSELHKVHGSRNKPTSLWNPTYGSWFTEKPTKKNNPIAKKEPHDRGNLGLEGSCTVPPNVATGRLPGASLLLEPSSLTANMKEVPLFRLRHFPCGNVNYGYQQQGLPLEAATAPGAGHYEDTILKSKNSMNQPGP

Row | SMILES | DC50 (nM) in SR [1] | DC50 (nM)) in H3122 [2] | IC50 (SR (NPM-ALK) cells; [3]) | ALK protein degradation ([1]; SR cells, western blot, 16 hours, up to 500 nM) | DC50 [1] | DC50 [2] | concentration at which ALK proteins were degraded ([1]; SR cells, western blot) | IC50 (SR (NPM-ALK) cells; [4])
1 | COc1cc(N2CCC(N)CC2)ccc1Nc1ncc(Cl)c(Nc2ccccc2P(C)(C)=O)n1 [Brigatinib Analogue B(SIAIS151101), (2-((2-((4-(4-aminopiperidin-1-yl)-2-methoxyphenyl)amino)-5-chloropyrimidin-4-yl)amino)phenyl)dimethylphosphine oxide] | Not degrade | Not degrade | 1.7 ± 1.4 nM |  |  |  |  | 
2 | COc1cc(N2CCC(N3CCNCC3)CC2)ccc1Nc1ncc(Cl)c(Nc2ccccc2P(C)(C)=O)n1 [Brigatinib Analogue C(SIAIS164005), (2-((5-chloro-2-((2-methoxy-4-(4-(piperazin-1-yl)piperidin-1-yl)phenyl)amino)pyrimidin-4-yl)amino)phenyl)dimethylphosphine oxide] | Not degrade | Not degrade | 6.7 ± 3.1 nM | did not degrade ALK protein |  |  |  | 
3 | COc1cc(N2CCC(NC(=O)CCCCCCNc3cccc4c3C(=O)N(C3CCC(=O)NC3=O)C4=O)CC2)ccc1Nc1ncc(Cl)c(Nc2ccccc2P(C)(C)=O)n1 (centres unmarked) [SIAIS151123, N-(1-(4-((5-chloro-4-((2-(dimethylphosphoryl)phenyl)amino)pyrimidin-2-yl)amino)-3-methoxyphenyl)piperidin-4-yl)-7-((2-(2,6-dioxopiperidin-3-yl)-1,3-dioxoisoindolin-4-yl)amino)heptanamide] |  |  | 1.9 ± 1.5 nM |  | 0.1 to 2 nM | 1 to 50 nM |  | 
4 | COc1cc(N2CCC(N3CCN(C(=O)CCOCCOCCOCCNc4cccc5c4C(=O)N(C4CCC(=O)NC4=O)C5=O)CC3)CC2)ccc1Nc1ncc(Cl)c(Nc2ccccc2P(C)(C)=O)n1 (centres unmarked) [SIAIS164009, 4-((2-(2-(2-(3-(4-(1-(4-((5-chloro-4-((2-(dimethylphosphoryl)phenyl)amino)pyrimidin-2-yl)amino)-3-methoxyphenyl)piperidin-4-yl)piperazin-1-yl)-3-oxopropoxy)ethoxy)ethoxy)ethyl)amino)-2-(2,6-dioxopiperidin-3-yl)isoindoline-1,3-dione] |  |  | 5.3 ± 1.7 nM |  | 1 to 10 nM | 1 to 10 nM | 1 nM | 
5 | CCc1cc2c(cc1N1CCN(C(=O)CCOCCOCCNc3cccc4c3C(=O)N(C3CCC(=O)NC3=O)C4=O)CC1)C(C)(C)c1[nH]c3cc(C#N)ccc3c1C2=O (centres unmarked) [SIAIS164012, 8-(4-(3-(2-(2-((2-(2,6-dioxopiperidin-3-yl)-1,3-dioxoisoindolin-4-yl)amino)ethoxy)ethoxy)propanoyl)piperazin-1-yl)-9-ethyl-6,6-dimethyl-11-oxo-6,11-dihydro-5H-benzo[b]carbazole-3-carbonitrile] |  |  |  |  | 1 to 50 nM | 1 to 50 nM |  | 48.9 nM
6 | COc1cc(N2CCC(N3CCN(C(=O)CCOCCOCCOCCOCCNc4cccc5c4C(=O)N(C4CCC(=O)NC4=O)C5=O)CC3)CC2)ccc1Nc1ncc(Cl)c(Nc2ccccc2P(C)(C)=O)n1 (centres unmarked) [SIAIS164016, 4-((15-(4-(1-(4-((5-chloro-4-((2-(dimethylphosphoryl)phenyl)amino)pyrimidin-2-yl)amino)-3-methoxyphenyl)piperidin-4-yl)piperazin-1-yl)-15-oxo-3,6,9,12-tetraoxapentadecyl)amino)-2-(2,6-dioxopiperidin-3-yl)isoindoline-1,3-dione] |  |  | 11.2 ± 6.8 nM |  | 1 to 10 nM | 1 to 10 nM |  | 
7 | COc1cc(N2CCC(N3CCN(C(=O)CCOCCOCCOCCOCCOCCNc4cccc5c4C(=O)N(C4CCC(=O)NC4=O)C5=O)CC3)CC2)ccc1Nc1ncc(Cl)c(Nc2ccccc2P(C)(C)=O)n1 (stereo not drawn) [SIAIS164017, 4-((18-(4-(1-(4-((5-chloro-4-((2-(dimethylphosphoryl)phenyl)amino)pyrimidin-2-yl)amino)-3-methoxyphenyl)piperidin-4-yl)piperazin-l-yl)-18-oxo-3,6,9,12,15-pentaoxaoctadecyl)amino)-2-(2,6-dioxopiperidin-3-yl)isoindoline-1,3-dione] |  | 0.02 to 20 nM | 14 ± 8.6 nM |  | 100 to 500 nM |  |  | 
8 | COc1cc(N2CCC(N3CCN(C(=O)CCNc4cccc5c4C(=O)N(C4CCC(=O)NC4=O)C5=O)CC3)CC2)ccc1Nc1ncc(Cl)c(Nc2ccccc2P(C)(C)=O)n1 (centres unmarked) [SIAIS164019, 4-((3-(4-(1-(4-((5-chloro-4-((2-(dimethylphosphoryl)phenyl)amino)pyrimidin-2-yl)amino)-3-methoxyphenyl)piperidin-4-yl)piperazin-1-yl)-3-oxopropyl)amino)-2-(2,6-dioxopiperidin-3-yl)isoindoline-1,3-dione] |  |  | 9.6 ± 8 nM |  | 1 to 10 nM | 10 to 20 nM |  | 
9 | COc1cc(N2CCC(N3CCN(C(=O)CCCNc4cccc5c4C(=O)N(C4CCC(=O)NC4=O)C5=O)CC3)CC2)ccc1Nc1ncc(Cl)c(Nc2ccccc2P(C)(C)=O)n1 (centres unmarked) [SIAIS164020, 4-((4-(4-(1-(4-((5-chloro-4-((2-(dimethylphosphoryl)phenyl)amino)pyrimidin-2-yl)amino)-3-methoxyphenyl)piperidin-4-yl)piperazin-1-yl)-4-oxobutyl)amino)-2-(2,6-dioxopiperidin-3-yl)isoindoline-1,3-dione] |  |  | 2.9 ± 1.5 nM |  | 0.5 to 10 nM | 1 to 50 nM |  | 
10 | CCc1cc2c(cc1N1CCN(C(=O)CNc3cccc4c3C(=O)N(C3CCC(=O)NC3=O)C4=O)CC1)C(C)(C)c1[nH]c3cc(C#N)ccc3c1C2=O (centres unmarked) [SIAIS164028, 8-(4-((2-(2,6-dioxopiperidin-3-yl)-1,3-dioxoisoindolin-4-yl)glycyl)piperazin-1-yl)-9-ethyl-6,6-dimethyl-11-oxo-6,11-dihydro-5H-benzo[b]carbazole-3-carbonitrile] |  |  |  |  | 1 to 50 nM | 1 to 10 nM |  | 19.7 nM
11 | COc1cc(N2CCC(N3CCN(C(=O)CCOCCOCCC(=O)N[C@H](C(=O)N4C[C@H](O)C[C@H]4C(=O)NCc4ccc(-c5scnc5C)cc4)C(C)(C)C)CC3)CC2)ccc1Nc1ncc(Cl)c(Nc2ccccc2P(C)(C)=O)n1 [SIAIS164032, (2S,4R)-1-((S)-2-(3-(2-(3-(4-(1-(4-((5-chloro-4-((2-(dimethylphosphoryl)phenyl)amino)pyrimidin-2-yl)amino)-3-methoxyphenyl)piperidin-4-yl)piperazin-1-yl)-3-oxopropoxy)ethoxy)propanamido)-3,3-dimethylbutanoyl)-4-hydroxy-N-(4-(4-methylthiazol-5-yl)benzyl)pyrrolidine-2-carboxamide] |  |  | 54.5 ± 31.2 nM |  | 100 to 500 nM | 20 to 100 nM |  | 
12 | COc1cc(N2CCC(N3CCN(C(=O)CCOCCOCCOCCC(=O)N[C@H](C(=O)N4C[C@H](O)C[C@H]4C(=O)NCc4ccc(-c5scnc5C)cc4)C(C)(C)C)CC3)CC2)ccc1Nc1ncc(Cl)c(Nc2ccccc2P(C)(C)=O)n1 [SIAIS164033, (2S,4R)-1-((S)-2-(tert-butyl)-16-(4-(1-(4-((5-chloro-4-((2-(dimethylphosphoryl)phenyl)amino)pyrimidin-2-yl)amino)-3-methoxyphenyl)piperidin-4-yl)piperazin-1-yl)-4,16-dioxo-7,10,13-trioxa-3-azahexadecanoyl)-4-hydroxy-N-(4-(4-methylthiazol-5-yl)benzyl)pyrrolidine-2-carboxamide] |  |  | 50.1 ± 34.9 nM |  | 100 to 500 nM | 100 to 500 nM |  | 
13 | COc1cc(N2CCC(N3CCN(C(=O)CCOCCOCCOCCOCCC(=O)N[C@H](C(=O)N4C[C@H](O)C[C@H]4C(=O)NCc4ccc(-c5scnc5C)cc4)C(C)(C)C)CC3)CC2)ccc1Nc1ncc(Cl)c(Nc2ccccc2P(C)(C)=O)n1 [SIAIS164034, (2S,4R)-1-((S)-2-(tert-butyl)-19-(4-(1-(4-((5-chloro-4-((2-(dimethylphosphoryl)phenyl)amino)pyrimidin-2-yl)amino)-3-methoxyphenyl)piperidin-4-yl)piperazin-1-yl)-4,19-dioxo-7,10,13,16-tetraoxa-3-azanonadecanoyl)-4-hydroxy-N-(4-(4-methylthiazol-5-yl)benzyl)pyrrolidine-2-carboxamide] |  |  | 88.6 ± 63 nM |  | 100 to 500 nM | 100 to 500 nM |  | 
14 | COc1cc(N2CCC(N3CCN(C(=O)CCOCCOCCOCCOCCOCCC(=O)N[C@H](C(=O)N4C[C@H](O)C[C@H]4C(=O)NCc4ccc(-c5scnc5C)cc4)C(C)(C)C)CC3)CC2)ccc1Nc1ncc(Cl)c(Nc2ccccc2P(C)(C)=O)n1 [SIAIS164035, (2S,4R)-1-((S)-2-(tert-butyl)-22-(4-(1-(4-((5-chloro-4-((2-(dimethylphosphoryl)phenyl)amino)pyrimidin-2-yl)amino)-3-methoxyphenyl)piperidin-4-yl)piperazin-1-yl)-4,22-dioxo-7,10,13,16,19-pentaoxa-3-azadocosanoyl)-4-hydroxy-N-(4-(4-methylthiazol-5-yl)benzyl)pyrrolidine-2-carboxamide] |  |  | 41.8 ± 24.7 nM |  | 100 to 500 nM | 100 to 500 nM |  | 
15 | COc1cc(N2CCC(N3CCN(C(=O)COCCOCC(=O)N[C@H](C(=O)N4C[C@H](O)C[C@H]4C(=O)NCc4ccc(-c5scnc5C)cc4)C(C)(C)C)CC3)CC2)ccc1Nc1ncc(Cl)c(Nc2ccccc2P(C)(C)=O)n1 [SIAIS164041, (2S,4R)-1-((S)-2-(2-(2-(2-(4-(1-(4-((5-chloro-4-((2-(dimethylphosphoryl)phenyl)amino)pyrimidin-2-yl)amino)-3-methoxyphenyl)piperidin-4-yl)piperazin-1-yl)-2-oxoethoxy)ethoxy)acetamido)-3,3-dimethylbutanoyl)-4-hydroxy-N-(4-(4-methylthiazol-5-yl)benzyl)pyrrolidine-2-carboxamide] |  |  | 42.7 ± 29.4 nM |  | 10 to 50 nM | 10 to 500 nM |  | 
